Experimental data published in PubChem BioAssay (NCI).
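Cultured in 96-well plates, cells were exposed to test compound for 48 hours across five concentrations. Abbreviation: GI50, concentration required for 50% inhibition of growth. At the TGI there is no net growth.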

Key:
Assay in all cases: inhibition of tumour cell growth, NCI panel, 48 h
786-0 renal = tested on: 786-0 renal
A498 renal = tested on: A498 renal
A549 NSCLC = tested on: A549 NSCLC
ACHN renal = tested on: ACHN renal
BT-549 breast = tested on: BT-549 breast
CAKI-1 renal = tested on: CAKI-1 renal
CCRF-CEM leukemia = tested on: CCRF-CEM leukemia
COLO 205 colon = tested on: COLO 205 colon
DU-145 prostate = tested on: DU-145 prostate
HCC-2998 colon = tested on: HCC-2998 colon
HCT-116 colon = tested on: HCT-116 colon
HCT-15 colon = tested on: HCT-15 colon
HL-60(TB) leukemia = tested on: HL-60(TB) leukemia
HOP-62 NSCLC = tested on: HOP-62 NSCLC
HOP-92 NSCLC = tested on: HOP-92 NSCLC
HS 578T breast = tested on: HS 578T breast
HT29 colon = tested on: HT29 colon
IGROV1 ovarian = tested on: IGROV1 ovarian
K-562 leukemia = tested on: K-562 leukemia
KM12 colon = tested on: KM12 colon
LOX IMVI melanoma = tested on: LOX IMVI melanoma
M14 melanoma = tested on: M14 melanoma
MALME-3M melanoma = tested on: MALME-3M melanoma
MCF7 breast = tested on: MCF7 breast
MDA-MB-231 breast = tested on: MDA-MB-231 breast
MDA-MB-435 = tested on: MDA-MB-435
MOLT-4 leukemia = tested on: MOLT-4 leukemia
NCI-H226 lung = tested on: NCI-H226 lung
NCI-H23 lung = tested on: NCI-H23 lung
NCI-H460 lung = tested on: NCI-H460 lung
NCI-H522 lung = tested on: NCI-H522 lung
NCI/ADR-RES ovarian = tested on: NCI/ADR-RES ovarian
OVCAR-3 ovarian = tested on: OVCAR-3 ovarian
OVCAR-4 ovarian = tested on: OVCAR-4 ovarian
OVCAR-5 ovarian = tested on: OVCAR-5 ovarian
OVCAR-8 ovarian = tested on: OVCAR-8 ovarian
PC-3 prostate = tested on: PC-3 prostate
RPMI-8226 leukemia = tested on: RPMI-8226 leukemia
RXF 393 renal = tested on: RXF 393 renal
SF-268 CNS = tested on: SF-268 CNS
SF-295 CNS = tested on: SF-295 CNS
SF-539 CNS = tested on: SF-539 CNS
SK-MEL-2 melanoma = tested on: SK-MEL-2 melanoma
SK-MEL-28 melanoma = tested on: SK-MEL-28 melanoma
SK-MEL-5 melanoma = tested on: SK-MEL-5 melanoma
SK-OV-3 ovarian = tested on: SK-OV-3 ovarian
SN12C renal = tested on: SN12C renal
SNB-19 CNS = tested on: SNB-19 CNS
SNB-75 CNS = tested on: SNB-75 CNS
SR leukemia = tested on: SR leukemia
SW-620 colon = tested on: SW-620 colon
T-47D breast = tested on: T-47D breast
TK-10 renal = tested on: TK-10 renal
U251 CNS = tested on: U251 CNS
UACC-257 melanoma = tested on: UACC-257 melanoma
UACC-62 melanoma = tested on: UACC-62 melanoma
UO-31 renal = tested on: UO-31 renal

O=C1Nc2ccc(F)c3c(OCCO)cc(-c4ccc[nH]4)c1c23
GI50 (786-0 renal): 2.44 µM
TGI (786-0 renal): 9.26 µM
GI50 (A498 renal): 0.896 µM
TGI (A498 renal): 4.24 µM
GI50 (A549 NSCLC): 1.21 µM
TGI (A549 NSCLC): 8.57 µM
GI50 (ACHN renal): 0.608 µM
TGI (ACHN renal): 7.2 µM
GI50 (BT-549 breast): 3.21 µM
TGI (BT-549 breast): 11.6 µM
GI50 (CAKI-1 renal): 0.393 µM
TGI (CAKI-1 renal): 3.33 µM
GI50 (CCRF-CEM leukemia): 0.99 µM
TGI (CCRF-CEM leukemia): 11.1 µM
GI50 (COLO 205 colon): 1.33 µM
TGI (COLO 205 colon): 5.79 µM
GI50 (DU-145 prostate): 1.97 µM
TGI (DU-145 prostate): 10.3 µM
GI50 (HCC-2998 colon): 2.63 µM
TGI (HCC-2998 colon): 10.1 µM
GI50 (HCT-116 colon): 1.15 µM
TGI (HCT-116 colon): 20.4 µM
GI50 (HCT-15 colon): 0.957 µM
TGI (HCT-15 colon): 7.87 µM
GI50 (HL-60(TB) leukemia): 1.14 µM
TGI (HL-60(TB) leukemia): 7.44 µM
GI50 (HOP-62 NSCLC): 3.07 µM
TGI (HOP-62 NSCLC): 13.8 µM
GI50 (HOP-92 NSCLC): 0.908 µM
TGI (HOP-92 NSCLC): 5.4 µM
GI50 (HS 578T breast): 1.06 µM
TGI (HS 578T breast): 10.2 µM
GI50 (HT29 colon): 1.99 µM
TGI (HT29 colon): 9.95 µM
GI50 (IGROV1 ovarian): 1.86 µM
TGI (IGROV1 ovarian): 10.4 µM
GI50 (K-562 leukemia): 5.28 µM
TGI (K-562 leukemia): 25 µM
GI50 (KM12 colon): 0.274 µM
TGI (KM12 colon): 2.37 µM
GI50 (LOX IMVI melanoma): 1.19 µM
TGI (LOX IMVI melanoma): 5.38 µM
GI50 (M14 melanoma): 1.4 µM
TGI (M14 melanoma): 12.4 µM
GI50 (MALME-3M melanoma): 3.47 µM
TGI (MALME-3M melanoma): 11.5 µM
GI50 (MCF7 breast): 0.81 µM
TGI (MCF7 breast): 10.9 µM
GI50 (MDA-MB-231 breast): 2.03 µM
TGI (MDA-MB-231 breast): 9.53 µM
GI50 (MDA-MB-435): 1.46 µM
TGI (MDA-MB-435): 14.1 µM
GI50 (MOLT-4 leukemia): 1.21 µM
TGI (MOLT-4 leukemia): 10.3 µM
GI50 (NCI-H226 lung): 1.47 µM
TGI (NCI-H226 lung): 12.8 µM
GI50 (NCI-H23 lung): 1.27 µM
TGI (NCI-H23 lung): 8.05 µM
GI50 (NCI-H460 lung): 0.927 µM
TGI (NCI-H460 lung): 5.14 µM
GI50 (NCI-H522 lung): 2.12 µM
TGI (NCI-H522 lung): 11.6 µM
GI50 (NCI/ADR-RES ovarian): 4.01 µM
TGI (NCI/ADR-RES ovarian): 20.1 µM
GI50 (OVCAR-3 ovarian): 3.59 µM
TGI (OVCAR-3 ovarian): 9.7 µM
GI50 (OVCAR-4 ovarian): 1.44 µM
TGI (OVCAR-4 ovarian): 12.1 µM
GI50 (OVCAR-5 ovarian): 2.35 µM
TGI (OVCAR-5 ovarian): 10 µM
GI50 (OVCAR-8 ovarian): 2.76 µM
TGI (OVCAR-8 ovarian): 18.3 µM
GI50 (PC-3 prostate): 1.32 µM
TGI (PC-3 prostate): 10.3 µM
GI50 (RPMI-8226 leukemia): 1.82 µM
TGI (RPMI-8226 leukemia): 8.18 µM
GI50 (RXF 393 renal): 0.987 µM
TGI (RXF 393 renal): 4.98 µM
GI50 (SF-268 CNS): 2.66 µM
TGI (SF-268 CNS): 6.87 µM
GI50 (SF-295 CNS): 2.43 µM
TGI (SF-295 CNS): 18.9 µM
GI50 (SF-539 CNS): 2.19 µM
TGI (SF-539 CNS): 6.12 µM
GI50 (SK-MEL-2 melanoma): 1.4 µM
TGI (SK-MEL-2 melanoma): 6.51 µM
GI50 (SK-MEL-28 melanoma): 4.43 µM
TGI (SK-MEL-28 melanoma): 15.1 µM
GI50 (SK-MEL-5 melanoma): 2.45 µM
TGI (SK-MEL-5 melanoma): 6.29 µM
GI50 (SK-OV-3 ovarian): 1.47 µM
TGI (SK-OV-3 ovarian): 25 µM
GI50 (SN12C renal): 1.11 µM
TGI (SN12C renal): 9.83 µM
GI50 (SNB-19 CNS): 3.66 µM
TGI (SNB-19 CNS): 14.9 µM
GI50 (SNB-75 CNS): 1.52 µM
TGI (SNB-75 CNS): 7.02 µM
GI50 (SR leukemia): 0.963 µM
TGI (SR leukemia): 5.51 µM
GI50 (SW-620 colon): 0.837 µM
TGI (SW-620 colon): 8.23 µM
GI50 (T-47D breast): 0.513 µM
TGI (T-47D breast): 1.52 µM
GI50 (TK-10 renal): 1.41 µM
TGI (TK-10 renal): 6.42 µM
GI50 (U251 CNS): 0.9 µM
TGI (U251 CNS): 6.3 µM
GI50 (UACC-257 melanoma): 4.94 µM
TGI (UACC-257 melanoma): 17.9 µM
GI50 (UACC-62 melanoma): 2.78 µM
TGI (UACC-62 melanoma): 6.33 µM
GI50 (UO-31 renal): 0.632 µM
TGI (UO-31 renal): 4.05 µM
